According to PMC8453635, “Piperidine Azasugars Bearing Lipophilic Chains: Stereoselective Synthesis and Biological Activity as Inhibitors of Glucocerebrosidase (GCase)” (The Journal of Organic Chemistry, 2021):

How the values were obtained:
Experiment in all cases: Human lysosomal glycosidase selectivity screening (leukocyte homogenate)
Format in all cases: biochemical
β-galactosidase = molecular target: T1, β-galactosidase (Homo sapiens, UniProt P16278); details: 1 mM, read-out: percentage of inhibition, β-Gal
T1 construct: from leukocytes isolated from healthy donors (controls); from tissue; host or cells: leukocytes from healthy donors, sonicated homogenate
T1 sequence (P16278 29-677): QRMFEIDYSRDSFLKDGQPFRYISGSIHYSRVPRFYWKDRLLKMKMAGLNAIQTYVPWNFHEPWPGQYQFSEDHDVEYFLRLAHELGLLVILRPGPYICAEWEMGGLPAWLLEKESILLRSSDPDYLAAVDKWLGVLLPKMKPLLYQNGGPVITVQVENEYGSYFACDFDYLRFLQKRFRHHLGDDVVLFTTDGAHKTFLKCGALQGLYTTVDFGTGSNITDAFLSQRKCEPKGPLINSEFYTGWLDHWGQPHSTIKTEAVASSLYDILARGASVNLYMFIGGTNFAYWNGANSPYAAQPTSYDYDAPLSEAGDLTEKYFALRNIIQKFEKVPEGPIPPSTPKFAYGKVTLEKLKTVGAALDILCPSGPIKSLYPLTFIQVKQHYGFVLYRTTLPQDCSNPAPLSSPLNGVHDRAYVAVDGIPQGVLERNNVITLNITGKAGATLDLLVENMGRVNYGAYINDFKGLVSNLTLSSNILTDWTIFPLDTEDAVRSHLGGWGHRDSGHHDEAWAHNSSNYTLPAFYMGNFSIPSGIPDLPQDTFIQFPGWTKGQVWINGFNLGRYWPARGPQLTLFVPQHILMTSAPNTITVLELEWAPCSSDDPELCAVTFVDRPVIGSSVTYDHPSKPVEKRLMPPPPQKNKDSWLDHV
Description: (§1) In order to avoid undesired inhibitory side effects of a potential new drug, it has to be selective for a given target. The selectivity of the newly synthesized compounds 14, 15, and 33·HCl toward GCase was then investigated, evaluating their inhibition at 1 mM concentration toward six other lysosomal glycosidases (namely, α-and β-mannosidases, α- and β-galactosidases, α-fucosidase, and α-glucosidase) in cell homogenates (leucocytes or lymphocytes) isolated from healthy donors. […] Indeed, only moderate inhibitory activity (ca. 50%) was found toward human β-galactosidase for both piperidines 14 and 15, while negligible inhibitory activity was detected in all other cases.
(§2) The effect of 1 mM concentration of 14, 15, and 33·HCl was assayed toward six lysosomal glycosidases other than GCase, namely, α-mannosidase, β-mannosidase, α-galactosidase, β-galactosidase, α-fucosidase from leukocytes isolated from healthy donors (controls) and α-glucosidase from lymphocytes isolated from healthy donors’ flesh blood (controls). […]
(§3) μL, Sigma –Aldrich) in acetate buffer (0.1M, pH 4.3) containing NaCl (0.1M) and sodium azide (0.02%) were incubated at 37 °C for 1 h. The reaction was stopped by addition o f sodium carbonate (200 μL; 0.5M, pH 10.7) containing Triton X -100 (0.0025 %), and the fluorescence 4 -methylumbelliferone released by β-galactosidase activity was measured in SpectraMax M2 microplate reader ( λex=365 nm, λem=435 nm; Molecular Devices). […]
(§4) α-Fucosidase activity was measured in a flat -bottomed 96 -well plate. […]
(§5) α-Glucosidase activity was measured in a flat –bottomed 96 well plate. […] The reaction was stopped by the addition of a solution of sodium carbonate (200 µL; 0.5M, pH 10.7) containing Triton X -100 (0.0025 %), and the fluorescence of 4 -methylumbelliferone released by α-glucosidase activity was measured in […]
(§6) Figure S 48. […] The corresponding calculated percentage of inhibition is indicated above each bar.

α-galactosidase = molecular target: T2, α-galactosidase (Homo sapiens, UniProt P06280); details: 1 mM, read-out: percentage of inhibition, α-Gal
T2 construct: from leukocytes isolated from healthy donors (controls); from tissue; host or cells: leukocytes from healthy donors, sonicated homogenate
T2 sequence (P06280 32-429): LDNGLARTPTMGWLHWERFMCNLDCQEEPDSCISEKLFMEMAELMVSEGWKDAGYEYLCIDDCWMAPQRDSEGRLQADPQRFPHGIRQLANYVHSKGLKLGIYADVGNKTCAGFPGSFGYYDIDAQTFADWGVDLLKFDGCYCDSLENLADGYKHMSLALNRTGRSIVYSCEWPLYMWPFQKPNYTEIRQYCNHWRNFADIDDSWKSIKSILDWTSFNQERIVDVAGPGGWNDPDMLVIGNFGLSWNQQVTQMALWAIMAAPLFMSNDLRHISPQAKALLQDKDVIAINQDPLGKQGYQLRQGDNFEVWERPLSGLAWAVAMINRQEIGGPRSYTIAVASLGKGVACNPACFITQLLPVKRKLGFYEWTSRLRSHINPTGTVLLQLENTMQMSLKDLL
Description: as §1, §2
as §3, with “(0.1 M,” for “(0.1M,”, “4.5)” for “4.3)”, “containing” for “containing NaCl (0.1M) and”, “Th e” for “The”, “of” for “o f”, “α-galactosidase” for “β-galactosidase”
as §4, §5, §6

α-mannosidase = molecular target: T3, α-mannosidase (Homo sapiens, UniProt O00754); details: 1 mM, read-out: percentage of inhibition, α-Man
T3 construct: from leukocytes isolated from healthy donors (controls); from tissue; host or cells: leukocytes from healthy donors, sonicated homogenate
T3 sequence (O00754 50-1011): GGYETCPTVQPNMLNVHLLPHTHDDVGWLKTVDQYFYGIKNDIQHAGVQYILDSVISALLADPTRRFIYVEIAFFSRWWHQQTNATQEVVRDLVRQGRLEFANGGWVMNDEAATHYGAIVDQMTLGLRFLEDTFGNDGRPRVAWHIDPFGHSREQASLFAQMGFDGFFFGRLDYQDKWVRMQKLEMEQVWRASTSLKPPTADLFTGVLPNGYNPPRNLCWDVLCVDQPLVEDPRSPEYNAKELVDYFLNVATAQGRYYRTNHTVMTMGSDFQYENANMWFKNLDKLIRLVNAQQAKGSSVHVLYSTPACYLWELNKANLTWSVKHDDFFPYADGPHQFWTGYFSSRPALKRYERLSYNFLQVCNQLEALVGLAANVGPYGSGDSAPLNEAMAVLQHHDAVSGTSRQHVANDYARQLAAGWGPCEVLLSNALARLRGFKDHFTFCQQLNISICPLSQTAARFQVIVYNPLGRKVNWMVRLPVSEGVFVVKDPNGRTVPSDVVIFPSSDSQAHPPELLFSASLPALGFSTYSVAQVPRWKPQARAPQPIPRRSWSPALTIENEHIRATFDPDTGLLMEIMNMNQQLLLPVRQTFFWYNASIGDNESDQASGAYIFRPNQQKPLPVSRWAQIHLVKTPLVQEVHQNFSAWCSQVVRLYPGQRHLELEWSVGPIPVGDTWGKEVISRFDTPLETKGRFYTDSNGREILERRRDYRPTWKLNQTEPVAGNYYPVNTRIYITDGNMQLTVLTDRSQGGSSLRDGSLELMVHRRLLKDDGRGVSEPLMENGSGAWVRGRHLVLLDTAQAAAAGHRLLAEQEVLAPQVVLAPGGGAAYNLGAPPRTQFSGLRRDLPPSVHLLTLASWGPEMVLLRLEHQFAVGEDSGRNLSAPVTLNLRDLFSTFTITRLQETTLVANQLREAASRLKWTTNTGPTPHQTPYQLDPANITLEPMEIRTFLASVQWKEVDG
Description: as §1
(§7) The effect of 1 mM concentration of 14, 15, and 33·HCl was assayed toward six lysosomal glycosidases other than GCase, namely, α-mannosidase, β-mannosidase, α-galactosidase, β-galactosidase, α-fucosidase from leukocytes isolated from healthy donors (controls) and α-glucosidase from lymphocytes isolated from healthy donors’ flesh blood (controls). Isolated leukocytes or lymphocytes were disrupted by sonication, and a micro BCA protein assay kit (Sigma-Aldrich) was used to determine the total protein amount for the enzymatic assay, according to the manufacturer’s instructions (for more details, see the Supporting Information section).
Selectivity of compounds 14, 15 and 33.HCl towards lysosomal enzymes.
as §7, with “15” for “15,”, “33.HCl” for “33·HCl”, “towards” for “toward”, “namely:” for “namely,”, “(Sigma–Aldrich)” for “(Sigma-Aldrich)”, “manufacturer instructions. […]” for “manufacturer’s instructions (for more details, see the Supporting Information section).”
Molecular Devices). Inhibition is given with respect to the control (without azasugar). Data are mean SD (n=3). […]
Inhibition is given with respect to the control (without azasugar). Data are mean SD (n=3). […]
(1 picture or pasted object on this page, not shown here) […]
α-Fucosidase activity was measured in a flat -bottomed 96 -well plate. Azasugar solution (3 μL), 4.29 μg/μL leukocytes homogenate 1:3 (7 μL), and substrate 4 -methylumbe lliferyl α-L-fucopyranoside (1.51 mM, 20 μL, Sigma –Aldrich) in Na phosphate/citrate buffer (0.2:0.1, M/M, pH 5.5) were incubated at 37 °C for 1 h. […]
Data are mean SD (n=3). S74 […]
α-Glucosidase activity was measured in a flat –bottomed 96 well plate. Azasugar solution (3 µL), 4.29 µg/µL lymphocytes homogenate (7µL) and 20 µL of substrate solution of 4 -methylumbelliferyl -α-D-glucopyranoside (Sigma -Aldrich) in Na a cetate buffer (0.2 M, pH 4.0) were incubated for 1 h at 37 °C. The reaction was stopped by the addition of a solution of sodium carbonate (200 µL; 0.5M, pH 10.7) containing Triton X -100 (0.0025 %), and the fluorescence of 4 -methylumbelliferone released by α-glucosidase activity was measured in […]
respect to the control (without azasugar). Data are means of 3 values. […]
Figure S 48. Activity of a panel of 6 hu man lysosomal glycosidases in the presence of compounds 14, 15 and 33.HCl (1 mM ). The corresponding calculated percentage of inhibition is indicated above each bar.

Row | SMILES | inhibition at 1000 µM (β-galactosidase) | inhibition at 1000 µM (α-galactosidase) | inhibition at 1000 µM (α-mannosidase)
1 | CCCCCCCC[C@H]1[C@@H](O)[C@H](O)[C@H](O)CN1CCCCCCCC [compound 14, (2S,3R,4R,5R)-1,2-Dioctylpiperidine-3,4,5-triol] | 48% | 9% | 4%
2 | CCCCCCCC[C@@H]1[C@@H](O)[C@H](O)[C@H](O)CN1CCCCCCCC [compound 15, (2R,3R,4R,5R)-1,2-Dioctylpiperidine-3,4,5-triol] | 51% | 8% | 7%
3 | CCCCCCCC[C@@H]1[C@@H](O)[C@H](O)[C@H](O)CN1C(CCCCCCC)CCCCCCC.Cl [compound 33·HCl, (2R,3R,4R,5R)-2-Octyl-1-(pentadecan-8-yl)-piperidine-3,4,5-triol Hydrochloride] | 15% | 1% | –
